Source: patent US9732032B2, “3-aminocyclopentane carboxamide derivatives” (Merck Patent GmbH, priority 2012, dated 2017)

The compounds below were run against T1, human recombinant full-length fatty acid synthase (FASN) (Homo sapiens, UniProt P49327) (assay: Biochemical activity testing of human fatty acid synthase FASN (NADPH fluorescence intensity assay)). Settings: NADPH fluorescence decrease (ex 340 nm / em 460 nm), 30 minutes at room temperature, read-out: IC50 FASN (enzyme assay).
T1 construct: human recombinant full-length fatty acid synthase; made in house; host or cells: SF9 cells
From the text: aq (aqueous), h (hour), g (gram), L (liter), mg (milligram), MHz (Megahertz), (melting point), eq (equivalent), mL (milliliter), L (microliter), ACN (acetonitrile), AcOH (acetic acid), CDCl3 (deuterated chloroform), CD3OD (deuterated methanol), CH3CN (acetonitrile), c-hex (cyclohexane), DCC (dicyclohexyl carbodiimide), DCM (dichloromethane), DIC (diisopropyl carbodiimide), DIEA (diisopropylethyl-amine), DMF (dimethylformamide), DMSO (dimethylsulfoxide), DMSO-d6 (deuterated dimethylsulfoxide), EDC (1-(3-dimethyl-amino-propyl)-3-ethylcarbodiimide), ESI (Electro-spray ionization), EtOAc (ethyl acetate), Et2O (diethyl ether), EtOH (ethanol), HATU (dimethylamino-([1,2,3]triazolo[4,5-b]pyridin-3-yloxy)-methylene]-dimethylammonium hexafluorophosphate), HPLC (High Performance Liquid Chromatography), i-PrOH (2-propanol), K2CO3 (potassium carbonate), LC (Liquid Chromatography), MeOH (methanol), MgSO4 (magnesium sulfate), MS (mass spectrometry), MTBE (Methyl tert-butyl ether), NaHCO3 (sodium bicarbonate), NaBH4 (sodium borohydride), NMM (N-methyl morpholine), NMR (Nuclear Magnetic Resonance), PyBOP (benzotriazole-1-yl-oxy-trispyrrolidino-phosphonium hexafluorophosphate), RT (room temperature), Rt (retention time), SPE (solid phase extraction), TBTU (2-(1-H-benzotriazole-1-yl)-1,1,3,3-tetramethyluromium tetrafluoro borate), TEA (triethylamine), TFA (trifluoroacetic acid), THF (tetrahydrofuran), TLC (Thin Layer Chromatography), UV (Ultraviolet). Description of the In Vitro Assays Abbreviations: GST=Glutathione-S-transferase FRET=Fluorescence resonance energy transfer HTRF®=(homogenous time resolved fluorescence) HEPES=4-(2-hydroxyethyl)-1-piperazine ethanesulfonic acid buffer DTT=Dithiothreitol BSA=bovine serum albumin CHAPS=detergent; CHAPS=3[(3-cholamidopropyl)dimethylammonio]-1-propanesulfonate Biochemical Activity Testing of Human Fatty Acid Synthase FASN
Fatty acid synthase FASN is a multifunctional enzyme with seven catalytic activities thereby synthesising long chain fatty acids especially palmitoyl-CoA in the presence of co-factor NADPH starting from the substrates acetyl-CoA and malonyl-CoA. The reductive synthesis is realized by the oxidation of NADPH to NADP. Since NADPH has a high fluorescence intensity quantum yield compared to NADP with excitation at 340 nm and emission at 460 nm, the reaction can be monitored via the decrease in fluorescence intensity. The biochemical FASN activity testing was performed as 384 well two-time-point kinetic fluorescence intensity assay format in Greiner low volume medium binding 384-well black microtiter plates in a total assay volume of 8 μl and was used for high throughput screen. In each well 3 μl 40 nM human recombinant full-length fatty acid synthase (produced in-house in SF9 cells) were dispensed in the following assay buffer: 50 mM potassium phosphate buffer pH 7.0, 0.005% (w/v) BSA, 2 mM Glutathione, 0.02% Tween-20. Then 2 μl of 200 μM NADPH in assay buffer were added, followed by the addition of the test compounds in 10 dilution concentrations starting with 30 μM (final concentration) to get a final DMSO content of 1% (v/v). The mixture was incubated for at least 15 min at room temperature. After the pre-incubation the enzymatic reaction was started by the addition of 2 μl substrate solution (80 μM acetyl-CoA, 240 μM malonyl-CoA). A first fluorescence intensity measurement (time point one) was performed with an Envision multimode reader (Perkin Elmer LAS Germany GmbH) at excitation wavelength 340 nm (lamp mode) and emission wavelength 460 nm. The reaction was incubated for 30 minutes at room temperature. After this the fluorescence intensity was measured again in the Envision using the same parameters as described above (second time point measurement). The data were analysed by subtracting the first time point measurement value from the second time point measurement value (after the enzymatic reaction). The differences of the emission signals were determined. […]

T1 sequence (P49327 whole entry): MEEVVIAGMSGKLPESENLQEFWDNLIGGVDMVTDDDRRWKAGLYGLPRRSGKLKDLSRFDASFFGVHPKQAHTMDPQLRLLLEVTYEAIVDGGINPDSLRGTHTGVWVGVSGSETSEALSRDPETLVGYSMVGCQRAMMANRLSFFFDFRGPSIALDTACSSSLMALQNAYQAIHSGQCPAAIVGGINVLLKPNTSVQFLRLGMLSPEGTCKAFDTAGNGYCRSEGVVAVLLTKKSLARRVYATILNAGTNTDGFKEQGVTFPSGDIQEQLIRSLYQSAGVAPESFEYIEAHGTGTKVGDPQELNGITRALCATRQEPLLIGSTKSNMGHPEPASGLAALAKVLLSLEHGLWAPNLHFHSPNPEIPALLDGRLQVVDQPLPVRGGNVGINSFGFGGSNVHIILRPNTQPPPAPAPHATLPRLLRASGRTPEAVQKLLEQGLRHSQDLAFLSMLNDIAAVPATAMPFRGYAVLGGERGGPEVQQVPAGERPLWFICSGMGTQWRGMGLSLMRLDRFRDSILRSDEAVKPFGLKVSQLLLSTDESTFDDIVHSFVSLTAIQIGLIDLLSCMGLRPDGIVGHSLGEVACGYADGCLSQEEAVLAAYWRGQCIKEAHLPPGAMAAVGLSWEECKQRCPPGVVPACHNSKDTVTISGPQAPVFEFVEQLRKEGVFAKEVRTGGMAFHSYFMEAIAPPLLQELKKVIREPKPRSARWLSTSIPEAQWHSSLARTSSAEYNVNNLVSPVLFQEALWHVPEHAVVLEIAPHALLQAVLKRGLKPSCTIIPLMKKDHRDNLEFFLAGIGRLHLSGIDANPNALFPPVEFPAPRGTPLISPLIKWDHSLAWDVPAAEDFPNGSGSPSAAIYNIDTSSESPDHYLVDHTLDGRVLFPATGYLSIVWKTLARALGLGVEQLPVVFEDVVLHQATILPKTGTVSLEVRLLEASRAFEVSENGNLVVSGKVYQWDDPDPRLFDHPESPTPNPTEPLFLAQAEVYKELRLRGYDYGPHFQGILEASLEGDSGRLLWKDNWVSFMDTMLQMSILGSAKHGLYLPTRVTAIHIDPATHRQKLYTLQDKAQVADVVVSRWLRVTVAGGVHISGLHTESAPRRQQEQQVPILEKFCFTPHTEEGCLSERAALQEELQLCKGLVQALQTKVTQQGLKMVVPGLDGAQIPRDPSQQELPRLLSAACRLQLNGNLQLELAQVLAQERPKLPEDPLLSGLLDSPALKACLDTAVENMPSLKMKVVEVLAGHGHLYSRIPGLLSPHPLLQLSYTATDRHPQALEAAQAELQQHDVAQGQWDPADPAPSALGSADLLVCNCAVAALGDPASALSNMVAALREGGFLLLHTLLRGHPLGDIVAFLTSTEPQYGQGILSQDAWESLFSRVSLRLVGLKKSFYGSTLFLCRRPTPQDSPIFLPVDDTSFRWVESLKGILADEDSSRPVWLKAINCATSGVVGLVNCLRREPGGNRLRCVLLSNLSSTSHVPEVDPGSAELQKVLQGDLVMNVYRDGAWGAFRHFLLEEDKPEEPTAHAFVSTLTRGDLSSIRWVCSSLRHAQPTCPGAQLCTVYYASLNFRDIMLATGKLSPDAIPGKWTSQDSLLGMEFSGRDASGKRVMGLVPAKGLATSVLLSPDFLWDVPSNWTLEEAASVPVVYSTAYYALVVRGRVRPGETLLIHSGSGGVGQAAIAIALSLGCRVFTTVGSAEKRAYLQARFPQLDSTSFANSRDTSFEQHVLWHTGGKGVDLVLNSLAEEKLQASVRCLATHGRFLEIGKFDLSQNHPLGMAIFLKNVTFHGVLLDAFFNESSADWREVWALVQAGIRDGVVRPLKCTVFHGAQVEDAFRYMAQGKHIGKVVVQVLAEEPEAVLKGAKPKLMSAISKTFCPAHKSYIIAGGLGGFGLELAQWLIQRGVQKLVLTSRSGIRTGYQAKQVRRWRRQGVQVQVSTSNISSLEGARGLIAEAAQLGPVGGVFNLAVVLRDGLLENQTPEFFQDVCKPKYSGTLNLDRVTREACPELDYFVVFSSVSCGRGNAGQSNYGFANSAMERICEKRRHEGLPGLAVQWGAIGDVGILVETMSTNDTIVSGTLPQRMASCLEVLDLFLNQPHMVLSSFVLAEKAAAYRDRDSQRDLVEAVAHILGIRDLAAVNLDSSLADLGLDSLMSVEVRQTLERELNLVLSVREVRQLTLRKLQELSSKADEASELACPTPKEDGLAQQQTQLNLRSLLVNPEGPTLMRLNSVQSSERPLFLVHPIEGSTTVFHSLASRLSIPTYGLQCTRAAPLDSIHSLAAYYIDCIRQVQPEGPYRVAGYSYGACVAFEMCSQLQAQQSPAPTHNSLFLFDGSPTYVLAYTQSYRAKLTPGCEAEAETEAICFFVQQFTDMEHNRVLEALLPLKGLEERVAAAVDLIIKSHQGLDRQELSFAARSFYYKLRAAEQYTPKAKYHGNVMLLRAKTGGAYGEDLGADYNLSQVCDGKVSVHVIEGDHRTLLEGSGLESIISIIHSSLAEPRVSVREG

Q: For COc1cc(-c2nc3ccccc3o2)ccc1C(=O)N(C)[C@@H]1CC[C@H](C(=O)NC2(C)CC2)C1 [Compound A79, 4-(1,3-benzoxazol-2-yl)-2-methoxy-N-methyl-N-[(1R,3S)-3-[(1-methylcyclopropyl)carbamoyl]cyclopentyl]benzamide], which IC50 is on record?
A: 300 to 3000 nM

Q: CN(C(=O)c1ccc(-c2nc3ccccc3o2)cc1)[C@@H]1CC[C@H](C(=O)NC(C)(C)CO)C1 [Compound A99, 4-benzoxazol-2-yl-N-[(1R,3S)-3-(2-hydroxy-1,1-dimethyl-ethylcarbamoyl)-cyclopentyl]-N-methyl-benzamide] was tested. Which IC50 did it give?
A: 300 to 3000 nM

Q: How did the IC50 turn out when CCNC(=O)[C@H]1CC[C@@H](N(C)C(=O)c2ccc(-c3ccncc3)cc2F)C1 [Compound A57, N-((1R,3S)-3-ethylcarbamoyl-cyclopentyl)-2-fluoro-N-methyl-4-pyridin-4-yl-benzamide] was run?
A: < 300 nM

Q: For CN(C(=O)c1ccc(-c2nc3ccccc3o2)cc1)[C@@H]1CC[C@H](C(=O)NC2CC2)C1 [Compound A6, 4-benzoxazol-2-yl-N-((1R,3S)-3-cyclopropylcarbamoyl-cyclopentyl)-N-methyl-benzamide], which IC50 is on record?
A: < 300 nM

Q: For CCNC(=O)[C@H]1CC[C@@H](N(C)C(=O)c2ccc(-c3nc4ccccc4n3C)cc2)C1 [Compound A2, N-((1R,3S)-3-ethylcarbamoyl-cyclopentyl)-N-methyl-4-(1-methyl-1H-benzoimidazol-2-yl)-benzamide], which IC50 is on record?
A: < 300 nM

Q: How did the IC50 turn out when CCNC(=O)[C@H]1CC[C@@H](N(C)C(=O)c2ccc(-c3ccc(O[C@@H]4CCOC4)cc3)cc2)C1 [Compound A4, 4′-[(R)-(tetrahydro-furan-3-yl)oxy]-biphenyl-4-carboxylic acid ((1R,3S)-3-ethylcarbamoyl-cyclopentyl)-methyl-amide] was run?
A: 300 to 3000 nM

Q: How did the IC50 turn out when CCNC(=O)[C@H]1CC[C@@H](N(C)C(=O)c2ccc(-c3ccccc3)cc2)C1 [Compound A50, biphenyl-4-carboxylic acid ((1R,3S)-3-ethylcarbamoyl-cyclopentyl)-methyl-amide] was run?
A: < 300 nM

Q: Which IC50 does the source give for CCNC(=O)[C@H]1CC[C@@H](N(C)C(=O)c2ccc(-c3ccc(Cl)cc3)cc2)C1 [Compound A62, 4′-chloro-biphenyl-4-carboxylic acid ((1R,3S)-3-ethylcarbamoyl-cyclopentyl)-methyl-amide] here?
A: < 300 nM

Q: CCN(C)C(=O)[C@H]1CC[C@@H](N(C)C(=O)c2ccc(-c3nc4ccccc4o3)cc2)C1 [Compound A47, 4-benzoxazol-2-yl-N-[(1R,3S)-3-(ethyl-methyl-carbamoyl)-cyclopentyl]-N-methyl-benzamide] was tested. Which IC50 did it give?
A: 300 to 3000 nM

Q: For CN(C(=O)c1ccc(-c2nc3ccccc3o2)cc1)[C@@H]1CC[C@H](C(=O)N[C@H]2C[C@H](O)C2)C1 [Compound A77, 4-(1,3-benzoxazol-2-yl)-N-[(1R,3S)-3-[(trans-3-hydroxycyclobutyl)-carbamoyl]cyclopentyl]-N-methyl-benzamide], which IC50 is on record?
A: < 300 nM

Q: For CCNC(=O)[C@@H]1CC[C@@H](N(C)C(=O)c2ccc(-c3nc4ccccc4o3)cc2)C1 [Compound A44, 4-(1,3-benzoxazol-2-yl)-N-[(1R,3R)-3-(ethylcarbamoyl)cyclopentyl]-N-methyl-benzamide], which IC50 is on record?
A: < 300 nM

Q: Which IC50 does the source give for CCNC(=O)[C@H]1CC[C@@H](N(C)C(=O)c2ccc(-c3ccc(F)cc3F)cc2)C1 [Compound A63, 2′,4′-difluoro-biphenyl-4-carboxylic acid ((1R,3S)-3-ethylcarbamoyl-cyclopentyl)-methyl-amide] here?
A: < 300 nM

Q: CN(C(=O)c1ccc(-c2cccnc2)cc1)[C@@H]1CC[C@H](C(=O)NC2(C)CC2)C1 [Compound A83, N-methyl-N-[(1R,3S)-3-(1-methyl-cyclopropylcarbamoyl)-cyclopentyl]-4-pyridin-3-yl-benzamide] was tested. Which IC50 did it give?
A: < 300 nM

Q: For CCNC(=O)[C@H]1CC[C@@H](N(C)C(=O)c2ccc(C#Cc3ccc(Cl)cc3)cc2)C1 [Compound A54, 4-(4-chloro-phenylethynyl)-N-((1R,3S)-3-ethylcarbamoyl-cyclopentyl)-N-methyl-benzamide], which IC50 is on record?
A: < 300 nM
